Laboratory results taken from ChEMBL document CHEMBL6074657, “Discovery and Synthesis of Heterobifunctional Degraders of Rearranged during Transfection (RET) Kinase” (J Med Chem, 2024).

Columns and labels:
[1] = in vitro; details: mouse, liver microsomes
[2] = in vitro; details: human, liver microsomes
[3] = in vitro; details: mouse, liver microsomes; remark: listed apart in the source
[4] = in vitro; details: rat, liver microsomes
[5] = in vitro; details: human, liver microsomes; remark: listed apart in the source
[6] = Cmax in athymic nude mouse at 8 mg/kg, sc measured after 24 hrs by LC/MS analysis; format: ADME, organism-based; details: in vivo
[7] = Cmax in athymic nude mouse at 25 mg/kg, sc measured after 24 hrs by LC/MS analysis; format: ADME, organism-based; details: in vivo
[8] = Bioavailability in mouse at 50 mg/kg, sc; format: ADME, organism-based; details: in vivo
[9] = Metabolic stability in rat liver microsomes assessed as half-life; format: ADME, Microsome
[10] = Tmax in athymic nude mouse at 8 to 75 mg/kg, sc by LC/MS analysis; format: ADME, organism-based; details: in vivo, dose 8-75 mg/kg
[11] = Cmax in athymic nude mouse at 75 mg/kg, sc measured after 24 hrs by LC/MS analysis; format: ADME, organism-based; details: in vivo
[12] = Intrinsic clearance in mouse; format: ADME, organism-based; details: in vivo

A half-life [1] of 1.57 h and a half-life [2] of over 2 h were found for `CCOc1cc(-c2ccc(N3CCC(CN4CCC(C(=O)N5CC(N6CCC(c7ccc8c(c7)C(=O)N(C7CCC(=O)NC7=O)C8)CC6)C5)CC4)(NC(=O)c4cc(F)ccc4F)CC3)nc2)c2c(C#N)cnn2c1` (stereo not given) in this work.
A half-life [1] of 1.42 h, a remaining at 10 min [3] of 85% and a half-life [2] of 1.4 h were found for `CCOc1cc(-c2ccc(N3CCC(CN4CCN(C(=O)CCCCN5CCC(c6ccc7c(c6)CN(C6CCC(=O)NC6=O)C7=O)CC5)CC4)(NC(=O)c4cc(F)ccc4F)CC3)nc2)c2c(C#N)cnn2c1` (stereo not given) in this work. It also gave a remaining at 10 min [4] of 100% and a remaining at 10 min [5] of 88%.
A half-life [1] of over 2 h, a remaining at 10 min [3] of 100% and a half-life [2] of 1.28 h were found for `CCOc1cc(-c2ccc(N3CCC(CN4CCN(C(=O)CCN5CCC(c6ccc7c(c6)C(=O)N([C@@H]6CCC(=O)NC6=O)C7)CC5)CC4)(NC(=O)c4cc(F)ccc4F)CC3)nc2)c2c(C#N)cnn2c1` in this work. The remaining at 10 min [4] was 100% and the remaining at 10 min [5] was 98%.
A half-life [1] of 0.933 h, a remaining at 10 min [3] of 85% and a half-life [2] of 0.867 h were found for `CCOc1cc(-c2ccc(N3CCC(CN4CCN(C(=O)CCN5CCC(c6ccc7c(c6)C(=O)N(C6CCC(=O)NC6=O)C7)CC5)CC4)(NC(=O)c4cc(F)ccc4F)CC3)nc2)c2c(C#N)cnn2c1` (stereo not given) in this work. The remaining at 10 min [4] was 89% and the remaining at 10 min [5] was 82%.
A half-life [1] of over 2 h, a remaining at 10 min [3] of 80% and a half-life [2] of over 2 h were found for `CCOc1cc(-c2ccc(N3CCC(CN4CCN(C(=O)CCN5CCC(c6ccc7c(c6)C(=O)N([C@H]6CCC(=O)NC6=O)C7)CC5)CC4)(NC(=O)c4cc(F)ccc4F)CC3)nc2)c2c(C#N)cnn2c1` in this work. It also gave a remaining at 10 min [4] of 100% and a remaining at 10 min [5] of 100%.
A Cmax [6] of 0.708 µM, a half-life [1] of over 2 h and a Cmax [7] of 4.3 µM were found for `CCOc1cc(-c2ccc(N3CCC(CN4CCN(C(=O)C5CC(N6CCC(c7ccc8c(c7)C(=O)N(C7CCC(=O)NC7=O)C8)CC6)C5)CC4)(NC(=O)c4cc(F)ccc4F)CC3)nc2)c2c(C#N)cnn2c1` (stereo not given) in this work. For the same compound, the bioavailability [8] was 30%, the half-life [9] was over 2 h and the Tmax [10] was 1 h. It also gave a half-life [2] of 1.48 h and a Cmax [11] of 8.09 µM.
A remaining at 10 min [3] of 100%, a remaining at 10 min [4] of 97% and a remaining at 10 min [5] of 79% were found for `CCOc1cc(-c2ccc(N3CCC(CN4CCN(C(=O)CCN5CCC(c6ccc7c(c6)C(=O)N(C6CCC(=O)NC6=O)C7)CC5)CC4)(NC(=O)c4ncccc4F)CC3)nc2)c2c(C#N)cnn2c1` (stereo not given) in this work.
A half-life [1] of 0.95 h, a remaining at 10 min [3] of 82% and a half-life [2] of 1.02 h were found for `CCOc1cc(-c2ccc(N3CCC(CN4CCN(C(=O)CCN5CCC(c6ccc7c(c6)CN(C6CCC(=O)NC6=O)C7=O)CC5)CC4)(NC(=O)c4cc(F)ccc4F)CC3)nc2)c2c(C#N)cnn2c1` (stereo not given) in this work. For the same compound, the remaining at 10 min [4] was 94% and the remaining at 10 min [5] was 85%.
A half-life [1] of 1.55 h, a remaining at 10 min [3] of 80% and a half-life [2] of 0.583 h were found for `CCOc1cc(-c2ccc(N3CCC(CN4CCN(C(=O)CCCCCCN5CCC(c6ccc7c(c6)CN(C6CCC(=O)NC6=O)C7=O)CC5)CC4)(NC(=O)c4cc(F)ccc4F)CC3)nc2)c2c(C#N)cnn2c1` (stereo not given) in this work. For the same compound, the remaining at 10 min [4] was 88% and the remaining at 10 min [5] was 78%.
A half-life [1] of 1.53 h, a remaining at 10 min [3] of 81% and a half-life [2] of over 2 h were found for `CCOc1cc(-c2ccc(N3CCC(CN4CCN(C(=O)C5CC6(C5)CC(N5CCN(c7ccc8c(c7)CN(C7CCC(=O)NC7=O)C8=O)CC5)C6)CC4)(NC(=O)c4cc(F)ccc4F)CC3)nc2)c2c(C#N)cnn2c1` (stereo not given) in this work. It also gave a remaining at 10 min [4] of 100% and a remaining at 10 min [5] of 84%.
A remaining at 10 min [3] of 63%, a remaining at 10 min [4] of 89% and a remaining at 10 min [5] of 58% were found for `COc1ccc(CN2[C@@H]3C[C@H]2CN(c2ccc(-c4cc(OCC(C)(C)O)cn5ncc(C#N)c45)cn2)C3)cn1` in this work.
A remaining at 10 min [3] of 68%, a remaining at 10 min [4] of 81% and a remaining at 10 min [5] of 10% were found for `CCOc1cc(-c2ccc(N3CCC(COCC(=O)N4CCC(CN5CCN(c6ccc7c(c6)CN(C6CCC(=O)NC6=O)C7=O)CC5)CC4)(NC(=O)c4cc(F)ccc4F)CC3)nc2)c2c(C#N)cnn2c1` (stereo not given) in this work.
A half-life [1] of 1.73 h, a remaining at 10 min [3] of 88% and a half-life [2] of 0.7 h were found for `CCOc1cc(-c2ccc(N3CCC(CN4CCN(C(=O)CCN5CCC(c6ccc7c(N8CCC(=O)NC8=O)nn(C)c7c6)CC5)CC4)(NC(=O)c4cc(F)ccc4F)CC3)nc2)c2c(C#N)cnn2c1` in this work. For the same compound, the remaining at 10 min [4] was 75% and the remaining at 10 min [5] was 81%.
A half-life [1] of 0.467 h, a remaining at 10 min [3] of 70% and a half-life [2] of 0.133 h were found for `CCOc1cc(-c2ccc(N3CCC(CN4CCN(C(=O)CCCCCCN5CCN(c6ccc7c(c6)CN(C6CCC(=O)NC6=O)C7=O)CC5)CC4)(NC(=O)c4cc(F)ccc4F)CC3)nc2)c2c(C#N)cnn2c1` (stereo not given) in this work. The remaining at 10 min [4] was 84%, the CLint scaled [12] was 32 mL/min/kg and the remaining at 10 min [5] was 40%.
